Measurements reported in patent publication US20150152091A1, “CROP ENHANCEMENT” (Syngenta Participations AG, priority 2012, published 2015).

What was measured:
Assay type in all cases: in vivo
[1] = system: Soybean seeds cv. Toliman; assay: Soybean seedling emergence in saturated warm test (seed treatment)
Method: Soybean seeds cv. Toliman were treated with a test compound of formula I formulated as FS100, at a dose of 0.05 g ai/kg, 0.005 g ai/kg, or 0.0001 g ai/kg seeds. Seeds were planted on 2 cm levelled pre-chilled moist sand and covered with a 2 cm layer of a mixture of steamed soil and sand (1:1). Enough cold water (10° C.) was added to the sand-soil mixture to adjust soil moisture to 60% water holding capacity. The seeds were incubated at 10° C. in the dark for 10 days and transferred into a chamber with alternating temperature (25° C. day/23° C. night) and light source (12 h) for 10 days. Seedling emergence in % and dry mass of above parts of seedling per tray was determined at the end of the incubation period. The test was performed using four replicates (4×50 seeds). Treated seeds used in the saturated cold test were evaluated in parallel in a saturated warm test. Test conditions were the same as those described for the 10 day warm incubation period of the saturated cold test. Briefly, seeds were placed onto a saturated sand layer of 2 cm and covered with saturated sand-soil mixture (60% WHC) at room temperature. The seeds were incubated 10 days at 25° C. day/23° C. night and 12 h light. Seedling emergence and shoot dry mass was determined as described in the saturated cold test method. The test was performed using four replicates each 50 seeds.

[2] = system: Soybean seeds cv. Toliman; assay: Soybean seedling emergence in saturated cold test (seed treatment); details: for Total shoot dry mass: per tray
Method: Soybean seeds cv. Toliman were treated with a test compound of formula I formulated as FS100, at a dose of 0.05 g ai/kg, 0.005 g ai/kg, or 0.0001 g ai/kg seeds. Seeds were planted on 2 cm levelled pre-chilled moist sand and covered with a 2 cm layer of a mixture of steamed soil and sand (1:1). Enough cold water (10° C.) was added to the sand-soil mixture to adjust soil moisture to 60% water holding capacity. The seeds were incubated at 10° C. in the dark for 10 days and transferred into a chamber with alternating temperature (25° C. day/23° C. night) and light source (12 h) for 10 days. Seedling emergence in % and dry mass of above parts of seedling per tray was determined at the end of the incubation period. The test was performed using four replicates (4×50 seeds).

[3] = system: temperate cauliflower Spacestar seeds (Brassica oleracea cv Botrytis); assay: Standard paper germination test for Brassica, suboptimal conditions; details: 25 μM, 10° C. in the light
Method: The effect of compounds of Formula (I) on the germination of Brassica oleracea cv Botrytis or common cauliflower was tested on two types of cauliflowers: temperate types and tropical types. These two types were chosen because they display different sensitivities to the light conditions and temperature during germination. Germination of a sensitive temperate type is inhibited by light at 10° C. while for the tropical types germination at 20° is stimulated by the presence of light. […] The temperate seed batches tested are part of commercially produced seed batches of various varieties which are known to be sensitive to light at 10° C. These seeds were harvested and cleaned according standard commercial procedures. Ready seed batches were used (Ready indicates the processing level of these seeds: they have been cleaned and sized but received no other treatments). The tropical seed batches tested are part of seed batches produced as basic seed (for maintenance of the parental line) and were processed accordingly. Germination was assessed using the standard paper germination test for Brassica: Fifty seeds were placed on blue germination paper, which was moistened with the appropriate solutions, in closed oblong germination boxes. Each condition was tested in duplo. Germination boxes were placed in controlled germination cabinets with the appropriate temperature and light conditions. Germination of seeds was counted at regular intervals. Seeds were considered to be germinated when the radical had protruded the testa and endosperm (radical size approximately 1 mm). Test compounds were dissolved in DMSO at a concentration of 50 mM and stored at −20° C. The strigolactone analogue GR24 (commercially available as a racemic mixture of 2 diastereoisomers, referred to as “synthetic strigolactone GR-24” and first prepared by Johnson A. W. & all, Journal of the Chemical Society, Perkin Transactions 1, 1981, page 1734-1743) was included as positive control. Germination solutions were prepared by diluting the stock solutions with demineralized water till 25 μM. As control solutions demineralized water and a 0.05% v/v DMSO solution were used.

[4] = 0.05 g ai/kg seeds, 10 days 25/23° C.
[5] = 0.05 g ai/kg seeds, FS100, 10 days 10° C. dark then 10 days 25/23° C.
[6] = Spacestar 11B313 (cold-sensitive), set A
[7] = Spacestar 11B314 (not cold sensitive), set A
[8] = Spacestar 11B313 (cold-sensitive), set B
[9] = Spacestar 11B314 (not cold sensitive), set B

Compound | Seedling emergence (%) ([1]; 0.0001 g ai/kg seeds) | Total shoot dry mass ([1]; 0.0001 g ai/kg seeds) [g] | Seedling emergence (%) ([1]; 0.005 g ai/kg seeds) | Total shoot dry mass ([1]; 0.005 g ai/kg seeds) [g] | Total shoot dry mass ([1]; 0.05 g ai/kg seeds) [g] | Seedling emergence (%) [1, 4] [%] | Seedling emergence (%) ([2]; 0.0001 g ai/kg seeds, FS100) | Total shoot dry mass ([2]; 0.0001 g ai/kg seeds) [g] | Seedling emergence (%) ([2]; 0.005 g ai/kg seeds, FS100) | Total shoot dry mass ([2]; 0.005 g ai/kg seeds) [g] | Seedling emergence (%) [2, 5] [%] | Total shoot dry mass ([2]; 0.05 g ai/kg seeds) [g] | Gmax (%), total germination as percentage of sown seeds [3, 6] [%] | stimulation (%), extra germination compared to the DMSO treatment [3, 6] [%] | Gmax (%), total germination as percentage of sown seeds [3, 7] [%] | stimulation (%), extra germination compared to the DMSO treatment [3, 7] [%] | Gmax (%), total germination as percentage of sown seeds [3, 8] [%] | stimulation (%), extra germination compared to the DMSO treatment [3, 8] [%] | Gmax (%), total germination as percentage of sown seeds [3, 9] [%] | stimulation (%), extra germination compared to the DMSO treatment [3, 9] [%]
CC(=O)N1C(=O)C(=COC2C=C(C)C(=O)O2)C2Cc3ccccc3C21 (stereo not shown) [Compound A4] | 89 | 6.035 | 90 | 5.908 | 5.920 | 86 | 62 | 4.788 | 62.5 | 4.550 | 61.5 | 4.850 | 82.0 | 36.7 | 91.0 | 0.6 |  |  |  | 
CC1=CC(OC=C2C(=O)N(c3ccccc3)C3c4ccccc4CC23)OC1=O (stereo not shown) [Compound A3] | 91 | 6.158 | 87 | 6.235 | 5.918 | 81 | 67 | 4.838 | 57 | 4.540 | 51.5 | 3.850 | 74.5 | 24.2 | 89.5 | −1.1 |  |  |  | 
CC1=CC(OC=C2C(=O)NC3c4ccccc4CC23)OC1=O (stereo not shown) [Compound B1] | 91 | 5.778 | 94 | 6.440 | 5.935 | 89 | 58.5 | 4.440 | 67 | 5.065 | 44.5 | 3.365 | 60.5 | 0.8 | 93.5 | 3.3 |  |  |  | 
CC1=CC(OC=C2C(=O)N(C)C3c4ccccc4CC23)OC1=O (stereo not shown) [Compound A8] |  |  |  |  |  |  |  |  |  |  |  |  |  |  |  |  | 73.0 | 35.2 | 93.5 | 8.7
CC1=C(C)C(OC=C2C(=O)NC3c4ccccc4CC23)OC1=O (stereo not shown) [Compound A7] |  |  |  |  |  |  |  |  |  |  |  |  |  |  |  |  | 68.5 | 26.9 | 95.0 | 10.5
CC1=C[C@H](O/C=C2/C(=O)O[C@@H]3c4ccccc4C[C@H]23)OC1=O [GR24, reference compound] |  |  |  |  |  |  |  |  |  |  |  |  | 71.5 | 19.2 | 93.5 | 3.3 | 80.0 | 48.1 | 93.0 | 8.1
CC1=CC(OC=C2C(=O)NC3c4cccc(C)c4CC23)OC1=O (mixture of isomers) [Compound A9] |  |  |  |  |  |  |  |  |  |  |  |  |  |  |  |  | 59.8 | 10.6 | 94.0 | 9.3
CC1=CC(OC=C2C(=O)NC3c4cccc(Br)c4CC23)OC1=O (stereo not shown) [Compound A2] | 89 | 5.763 | 87.5 | 6.105 | 6.325 | 91.5 | 48.5 | 3.810 | 49.5 | 3.725 | 56 | 3.993 |  |  |  |  |  |  |  | 
CC1=CC(OC=C2C(=O)N(C(=O)OC(C)(C)C)C3c4ccccc4CC23)OC1=O (mixture of isomers) [Compound A5] | 91 | 6.260 | 91.5 | 6.095 | 6.148 | 91.5 | 48 | 3.420 | 51.5 | 3.815 | 55 | 4.105 | 74.5 | 24.2 | 92.5 | 2.2 |  |  |  | 
CC1=CC(OC=C2C(=O)NC3c4ccccc4CC23)OC1=O (stereo not shown) [Compound A1] | 88.5 | 6.053 | 89 | 6.010 | 6.023 | 91 | 67.5 | 5.298 | 63.5 | 5.018 | 54.5 | 4.438 | 77.0 | 28.3 | 90.5 | 0.0 |  |  |  | 
